Test results taken from paper PMC9368227, “Investigation of Radiotracer Metabolic Stability In Vitro with CYP-Overexpressing Hepatoma Cell Lines” (Cells, 2022).
Entries after “also recorded” stand apart in the source; their conditions may differ.

Assays:
[1] = tested on: HepG2 CYP1A2; assay: Radiotracer metabolic stability, CYP1A2-overexpressing HepG2 cells; format: in vitro ADME, human; conditions: radio-TLC
Method: (§1) CYP-overexpressing human hepatocellular carcinoma cells (HepG2) were previously generated on the basis of subcloning human CYP1A2 [18], CYP2C19 [20], and CYP3A4 [21] cDNA into a lentiviral expression vector. The cDNA expression in the resulting vector was controlled by the human cytomegalovirus (CMV) promoter. The lentivirus expression vectors were used to produce recombinant lentivirus particles according to standard methods to infect HepG2 cells. Infected cells were selected with 3 µg/mL blasticidin for CYP2C19 and CYP3A4 and 500 µg/mL zeocin for CYP1A2 overexpression 48 h after infection. Within 3–4 weeks, antibiotic-resistant cell colonies were picked to obtain single cell-derived HepG2 clones. For more detailed information on the generation procedure of CYP-overexpressing HepG2 cells, see Steinbrecht et al..
(§2) HepG2 cells were cultured in DMEM GlutaMax (Gibco, Paisley, UK) with 10% fetal calf serum (FCS) and with selective antibiotics (penicillin/streptomycin for wildtype, Zeocin (InvivoGen, San Diego, CA, USA) for CYP1A2, and Blasticidin (Gibco, Carlsbad, CA, USA) for CYP2C19 and CYP3A4 cultures). […] Cell density was determined with a cell counter (CASY® Model TT from Schärfe System, Reutlingen, Germany). […]
(§3) Incubations with radiotracer compounds were conducted, on the one hand, with radioactive ^18F-labeled compounds alone (time dependency) and, on the other hand, in the presence of 50 µM nonradioactive reference (carrier addition). For the investigation of a time-dependent metabolite formation, 2 µL aliquots were withdrawn from the supernatant, directly spotted onto the TLC plate, and analyzed as described above. […]
UPLC–MS analyses were performed to verify the degradation behavior of the test compounds and to gain insights into the identity of the formed metabolites. […] Additionally, incubations with the nonradioactive references were carried out with 100 nM or 50 µM (according to the carrier-added samples) and analyzed. UPLC–MS/MS was performed using System 2 (55% isocratic elution for quantification of intact compound, or 25–75% gradient for nonradioactive metabolite analysis). […]

[2] = tested on: HepG2 CYP2C19; assay: Radiotracer metabolic stability, CYP2C19-overexpressing HepG2 cells; format: in vitro ADME, human
Method: as §1
HepG2 cells were cultured in DMEM GlutaMax (Gibco, Paisley, UK) with 10% fetal calf serum (FCS) and with selective antibiotics (penicillin/streptomycin for wildtype, Zeocin (InvivoGen, San Diego, CA, USA) for CYP1A2, and Blasticidin (Gibco, Carlsbad, CA, USA) for CYP2C19 and CYP3A4 cultures). As a negative control, cultures of CHO cultivated in Ham’s F-12 medium (Gibco) with 10% FCS and 2 mM glutamine were added for the radiotracer experiments. Cells were handled under a laminar flow hood (Thermo Scientific^TM Safe 2020, Langenselbold, Germany) and were split once or twice a week by trypsinization. Cell cultures were stored horizontally in a humidified incubator (Heracell240i) at 37 °C and 5% CO2. During the time of experimental work, the utilized cell lines were regularly checked for mycoplasma. Cells were seeded in duplicates into a 96-well plate (CellStar®) with a density of 3 × 10^5 cells/well and cultured until the next day at 37 °C and 5% CO2. Cell density was determined with a cell counter (CASY® Model TT from Schärfe System, Reutlingen, Germany). Before the addition of substrates, cells were washed twice with Krebs–Henseleit buffer (KHB). The HEPES-supplemented Krebs–Henseleit buffer (pH 7.4, KHB) was freshly prepared using HEPES (5.95 g/L), D-glucose (2.0 g/L), magnesium sulfate (0.141 g/L), potassium dihydrogenphosphate (0.16 g/L), potassium chloride (0.35 g/L), sodium chloride (6.9 g/L), calcium chloride dihydrate (0.373 g/L), and sodium bicarbonate (2.1 g/L), followed by adjustment to pH 7.4 with NaOH. The utilized substances within this study were neither found (see Supplementary Materials, Figure S14) nor reported to be cytotoxic within the utilized concentration range and incubation duration.
Incubations with radiotracer compounds were conducted, on the one hand, with radioactive ^18F-labeled compounds alone (time dependency) and, on the other hand, in the presence of 50 µM nonradioactive reference (carrier addition). For the investigation of a time-dependent metabolite formation, 2 µL aliquots were withdrawn from the supernatant, directly spotted onto the TLC plate, and analyzed as described above. The same procedure was performed for carrier-added samples.
UPLC–MS analyses were performed to verify the degradation behavior of the test compounds and to gain insights into the identity of the formed metabolites. Using radiotracer incubation samples, 40 µL aliquots of the carrier-added incubations were withdrawn followed by addition of 160 µL of ACN and centrifugation (14,000 rpm (18,800–20,800× g), 4 °C, 5 min). Samples were frozen at −20 °C, and activity was allowed to decay before further mass-spectrometric analyses. Additionally, incubations with the nonradioactive references were carried out with 100 nM or 50 µM (according to the carrier-added samples) and analyzed. UPLC–MS/MS was performed using System 2 (55% isocratic elution for quantification of intact compound, or 25–75% gradient for nonradioactive metabolite analysis). The MRM mode was optimized with a solution of respective reference compounds diluted in eluent. […]

[3] = tested on: HepG2 CYP3A4; assay: Radiotracer metabolic stability, CYP3A4-overexpressing HepG2 cells; format: in vitro ADME, human; conditions: HepG2 CYP3A4, up to 2 h; radio-TLC
Method: as §1
as §2, with “cultures). As a negative control, cultures of CHO cultivated in Ham’s F-12 medium (Gibco) with 10% FCS and 2 mM glutamine were added for the radiotracer experiments.” for “cultures).”

[4] = tested on: CHO (Chinese hamster ovary) cells; assay: Radiotracer metabolic stability, CHO cells (negative control), radio-TLC; format: in vitro ADME; conditions: up to 2 h
Method: HepG2 cells were cultured in DMEM GlutaMax (Gibco, Paisley, UK) with 10% fetal calf serum (FCS) and with selective antibiotics (penicillin/streptomycin for wildtype, Zeocin (InvivoGen, San Diego, CA, USA) for CYP1A2, and Blasticidin (Gibco, Carlsbad, CA, USA) for CYP2C19 and CYP3A4 cultures). As a negative control, cultures of CHO cultivated in Ham’s F-12 medium (Gibco) with 10% FCS and 2 mM glutamine were added for the radiotracer experiments. Cells were handled under a laminar flow hood (Thermo Scientific^TM Safe 2020, Langenselbold, Germany) and were split once or twice a week by trypsinization. Cell cultures were stored horizontally in a humidified incubator (Heracell240i) at 37 °C and 5% CO2. During the time of experimental work, the utilized cell lines were regularly checked for mycoplasma. […] Cell density was determined with a cell counter (CASY® Model TT from Schärfe System, Reutlingen, Germany). […]
as §3

[5] = tested on: HepG2 CYP1A2; assay: Competitive coincubation of [18F]1 with competitors, HepG2 CYP1A2; conditions: 1 h; without any additional substance; 120–125 nM [18F]1
Method: Radio thin-layer chromatography (radio-TLC) was carried out on reversed-phase TLC plates (ALUGRAM RP-18W/UV254 from Macherey-Nagel, Düren, Germany) with a mobile phase of 45% ACN in water containing 0.1% trifluoroacetic acid. The samples (2 µL) were spotted onto the TLC plate. The line of origin and the front line were labeled with 1/5 of the sample activity concentration. To track the Rf value of the intact radiotracer, each TLC was spotted with the intact tracer as reference in the middle. Detection of the activity signals was achieved after 10–30 min development on radioluminographic imaging plates (FUJIFILM, Tokyo, Japan) and subsequent readout with Fuji BAS 5000® or Amersham™ Typhoon™ from GE Healthcare (Uppsala, Sweden). The resulting chromatographic profile was analyzed and integrated with the help of AIDA Image Analysis Software (version 5.1). For data depiction, the fraction of each species (intact radiotracer, metabolite, [^18F]fluoride) was plotted.
Incubations were conducted for up to 2 h in a 96-well plate in KHB with a total incubation volume of 50 µL and an ethanol concentration of 0.4%. For the incubation with radiotracers, an activity of 100–200 kBq/well at the start of the experiment was used.
Our last interest within this study was to test if the tracer itself could function as an indicator for the conversion of other substrates acting via inhibition of or competition with the CYP enzymes. In this regard, alternative substrates were added to the incubation mixtures with [^18F]1. The investigated substrates covered testosterone, caffeine, progesterone, compound 3, tebufelone, and RWJ63556 [44] (10 µM for all substances). Furthermore, the influence of testosterone on the metabolic turnover of [^18F]1 was investigated over a concentration range of 1–50 µM.
Figure 7 Coincubation of [^18F]1 and different competitors with (A) HepG2 CYP1A2 and (B) HepG2 CYP2C19. […] Each competitor/inhibitor was incubated with [^18F]1 for 1 h followed by radio-TLC analysis. Activity concentrations of 94–197 kBq/well (1.9–3.9 MBq/mL) were used at start of experiment, which correspond to a concentration of 120–125 nM. Statistical analysis performed with Dunnett’s multiple comparison (post hoc test) according to the intact tracer amount (* p < 0.05; *** p < 0.001; **** p < 0.0001; n = 4).

[6] = tested on: HepG2 wildtype; assay: Radiotracer metabolic stability, HepG2 wildtype, radio-TLC; format: in vitro ADME, human; conditions: up to 2 h
Method: as §1
as §2, with “cultures). As a negative control, cultures of CHO cultivated in Ham’s F-12 medium (Gibco) with 10% FCS and 2 mM glutamine were added for the radiotracer experiments.” for “cultures).”

Intact tracer in supernatant ([1]; 2 h incubation, 2–4 MBq/mL (28–187 nM)): 14.6% | Increase of intact tracer amount with carrier addition ([2]; 1 h, CA versus without carrier addition): 10 fold | Amount of intact tracer ([2]; 1 h, carrier-added (CA), 50 µM 1, radio-TLC): 67.2% | Amount of intact tracer ([2]; 1 h, without carrier addition, 24 MBq/mL (460 nM), radio-TLC): 6.6% | Intact tracer in supernatant ([2]; 1 h incubation, 2–4 MBq/mL (28–187 nM), radio-TLC): 1.3% | Metabolic turnover / stability of radiotracer (in words) [3]: mainly intact radiotracer was found | Intact tracer [18F]1 remaining [5]: 33% | Metabolic turnover / stability of radiotracer (in words) [6]: mainly intact radiotracer was found
Compound: Cc1ccc(-c2cc(C[18F])nn2-c2ccc(S(C)(=O)=O)cc2)cc1 [[^18F]1, 3-([^18F]fluoromethyl)-1-[4-(methylsulfonyl)phenyl]-5-(p-tolyl)-1H-pyrazole]
Metabolic turnover / stability of radiotracer (in words) ([1]; HepG2 CYP1A2, up to 2 h): formation of radiometabolites was observed | Metabolic turnover / stability of radiotracer (in words) ([2]; HepG2 CYP2C19, up to 2 h, radio-TLC): formation of radiometabolites was observed | Metabolic turnover / stability of radiotracer (in words) [4]: mainly intact radiotracer was found; also recorded: no metabolic turnover
